Test results reported in patent US20040167226A1, “Methods for the treatment of pain and traumatic injury using benzamides and compositions containing the same” (priority 2002, published 2004).

Experiments:
[1] = Absolute oral bioavailability and blood t1/2 of Compound A; type: in vivo, rats; conditions: rat, whole blood
Method: The absolute oral bioavailability of Compound A was determined by comparing the area-under-the-curve (“AUC”) following a 20 mg/kg IV dose of Compound A (2 ml/kg, 75% PEG solution) to a 20 mg/kg dose of Compound A dissolved in 1% methyl cellulose. Blood concentrations were determined at 0, 0.083, 0.15, 0.5, 1, 2, 4, 8, and 24 hours post-IV dose and 0, 0.5, 1, 2, 4 and 8 hours post-oral dose. Four animals were dosed orally and four animals were dosed intravenously.
In another experiment, six rats were orally dosed with 30 mg/kg of Compound A dissolved in 1% methyl cellulose. Blood samples were taken at 0.5, 1, 2, 5, 8, 12, 16, 20 and 24 hours. The apparent t1/2 for Compound A in the blood was 8 hours. This is a very long t1/2 for a drug in rats and is a good predictor of once-a-day dosing for Compound A in humans. Such a dosing regimen would be a significant therapeutic advantage in the clinic.
The blood samples were analyzed by HPLC. Detection was by UV at 262 nm. Responses were converted to concentrations by comparison to responses from calibration standards injected onto the column. The resulting concentrations were used to calculate the AUC.

[2] = PK parameter estimates, 30 mg/kg po in 1% methyl cellulose; type: in vivo, rats
From the text: The time course of plasma concentration of compound N is depicted in FIG. 1 as well.

TNFα = assay: Immunohistochemistry for inflammatory marker TNFα on contused spinal cord; type: in vivo; conditions: rats after contusion injury; 72 h post-injury, 1 mm caudal to epicenter
Method: Compound A was tested in both the rat dorsal hemisection (Guth, L. et al. (1980), J. Neurosurgery 52: 73-86) and contusion models (Scheff, S. W. (2003), J. Neurotrauma 20: 179-193) for evaluation of efficacy. These models are widely used in the field of spinal cord injury and replicate many of the pathological aspects found in humans who have sustained a spinal cord injury. Rats were subjected to an experimental spinal cord injury at T8, and were given Compound A shortly thereafter. Behavioral tests to assess the locomotion deficits were performed after the lesion. At the end of the experiment, animals were sacrificed and the spinal cord was collected for histopathological analysis. […] Histological assessment of the tissue at the site of injury was also made in both the drug treated and untreated group. In particular, subsequent to the behavioral measurement, spinal cord tissue from each animal was obtained and serial transverse tissue sections were stained with either anti-neurofilament antibody or antibodies specific for the inflammatory markers, tumor necrosis factor alpha (TNFα) and for the inducible form of nitric oxide synthetase (iNOS), followed by incubation with Alexa Fluor®-conjugated secondary antibodies.
Histological assessment of the tissue at the site of injury was also made in both the drug treated and untreated group. […]

[3] = Brain-blood distribution of Compound A in the mouse; type: in vivo; conditions: brain / whole blood, single po dose 30 mg/kg, n = 5, read-out: Brain/Blood Ratio (Mean ± SD)
Method: Blood-brain distribution of Compound A was assessed in the mouse, rat, and squirrel monkey by determining the concentrations of Compound A in blood and brain tissue at specific times post dose. Rats and mice received a single po dose of 30 mg/kg. The monkeys received a twice-daily 10 mg/kg po dose of Compound A for a total of 5 weeks prior to sacrifice. Brain to blood ratios for Compound A, as shown below in Table 4, show high penetration of the blood-brain barrier.

[4] = rat, plasma, rats, 30 mg/kg po in 1% methyl cellulose, n = 3

CC(=O)Nc1ccc(C(=O)NC(C)(C)C)cc1 [Compound A, N-tert-butyl-4-acetamidobenzamide]
bioavailability ([1]; AUC of 20 mg/kg oral (1% methyl cellulose) vs 20 mg/kg IV (75% PEG), read-out: absolute bioavailability through oral dosing): 52% | half-life ([1]; rats, 30 mg/kg oral in 1% methyl cellulose, read-out: apparent t1/2 in the blood (converted)): 480 min | bioavailability (in words) ([2]; additional series of bioavailability experiments): excellent bioavailability | AUC(0-inf) [2, 4]: 745 µg·h/mL | Cmax [2, 4]: 34000 ng/mL | Tmax [2, 4]: 8 h | half-life ([2]; rat, plasma, rats, 30 mg/kg po in 1% methyl cellulose, n = 3, read-out: Elim.t1/2 (converted)): 660 min | inflammatory marker TNFα in the region of the corticospinal tract vs untreated control (TNFα): decreased | Kp at 0.5 h ([3]; 0.5 h post-dose): 0.79 ± 0.05 | Kp at 1 h ([3]; 1.0 h post-dose): 0.8 ± 0.05 | Kp at 2 h ([3]; 2.0 h post-dose): 0.76 ± 0.06
